Some test systems named below: SK-MEL-2; RXF 393; EKVX; KM12; MCF7; SK-OV-3; T47D; SR; 786-0; Hs-578T; SNB-19; DU-145; SK-MEL-5; NCI/ADR-RES; OVCAR-5; LOX IMVI; HL-60; IGROV-1; A549; UACC-62.
Experiment in all cases: growth of human tumour cells (NCI), 48 h

The structures appear in SMILES notation.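 Results reflect a 48-hour exposure of cells in 96-well plates to compound at five concentrations. GI50 is the concentration that inhibits growth by half.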 Calls of active or inactive are those of the source. No stated cut-off is given here; in the data, active = GI50 up to about 1.1 µM and inactive = higher. Some results are limits rather than exact numbers.

In the case of `COc1cc(C(=O)NC2CCc3cc(OC)c(OC)c(OC)c3-c3ccc(OC)c(=O)cc32)cc(OC)c1OC` (stereo not given), the GI50 in the assay on SK-MEL-2 was 0.0935 µM (active); in the assay on RXF 393, 0.466 µM (active); in the assay with EKVX, 12 µM (inactive); in the assay with KM12, 0.036 µM (active); in the assay on MCF7 it was < 0.0176 µM (active); with SK-OV-3, 0.231 µM (active). Moreover, the GI50 in the assay on T47D is 18.8 µM (inactive); in the assay with SR, 0.0249 µM (active); in the assay with 786-0, 0.288 µM (active); in the assay with Hs-578T it was 0.025 µM (active); in the assay with SNB-19 it was 0.138 µM (active); in the assay with DU-145, 0.24 µM (active). In addition, the GI50 with SK-MEL-5 was 0.0553 µM (active); with NCI/ADR-RES, 18.2 µM (inactive); in the assay on OVCAR-5, 2.75 µM (inactive); in the assay on LOX IMVI it was 0.0424 µM (active); in the assay with HL-60, 0.0259 µM (active); with IGROV-1, 0.0891 µM (active). The GI50 in the assay with A549 is 0.431 µM (active); in the assay on UACC-62 it was 0.0711 µM (active).
On to `Cc1ccc2c(c1)Sc1ccc(/N=N/N(C)C)cc1N2C`, for which the GI50 in the assay on SK-MEL-2 was > 100 µM (inactive); in the assay with RXF 393 it was > 100 µM (inactive); in the assay on EKVX, > 100 µM (inactive); in the assay with KM12 it was 48.8 µM (inactive); with MCF7, 87.9 µM (inactive); in the assay with SK-OV-3 it was > 100 µM (inactive). The GI50 in the assay with T47D was 31.7 µM (inactive); in the assay on SR, 52.8 µM (inactive); with 786-0 it was > 100 µM (inactive); in the assay on Hs-578T, > 100 µM (inactive); with SNB-19, > 100 µM (inactive); with DU-145, > 100 µM (inactive). The GI50 with SK-MEL-5 is 96.2 µM (inactive); with NCI/ADR-RES, > 100 µM (inactive); in the assay on OVCAR-5, > 100 µM (inactive); in the assay with LOX IMVI it was 35.8 µM (inactive); with HL-60, 64.6 µM (inactive); in the assay on IGROV-1 it was > 100 µM (inactive). The GI50 in the assay on A549 and in the assay on UACC-62 was > 100 µM (inactive) in each case.
`CC(=O)OC1=CC(n2cc(F)c(=O)[nH]c2=O)OC(C)C1=O` (stereo not given): the GI50 in the assay on SK-MEL-2 is > 100 µM (inactive); with RXF 393, 55.3 µM (inactive); in the assay on EKVX, > 88.5 µM (inactive); in the assay on KM12, 22.8 µM (inactive); in the assay with MCF7 it was 4.28 µM (inactive); in the assay with SK-OV-3, 99.1 µM (inactive). In addition, the GI50 in the assay with T47D was 16.7 µM (inactive); in the assay on SR, 26.1 µM (inactive); in the assay with 786-0 it was 26.4 µM (inactive); with Hs-578T, > 88.3 µM (inactive); in the assay on SNB-19 it was 61.9 µM (inactive); in the assay on DU-145 it was 21.6 µM (inactive). The GI50 in the assay on SK-MEL-5 is 13.2 µM (inactive); in the assay on NCI/ADR-RES it was 40.2 µM (inactive); with OVCAR-5, 49.8 µM (inactive); with LOX IMVI, 14.6 µM (inactive); in the assay on HL-60 it was 21.4 µM (inactive); in the assay with IGROV-1, 30.5 µM (inactive). Further, the figures for the GI50 in the assay with A549 and in the assay with UACC-62 were 7.29 µM (inactive) and 24.9 µM (inactive), respectively.
In the case of `NC(=O)C(=CNC(N)=S)C(N)=O`, the GI50 in the assay on SK-MEL-2, in the assay with RXF 393, in the assay with EKVX, in the assay with KM12, with MCF7 and in the assay on SK-OV-3 was > 100 µM (inactive) each time. Further, the GI50 with T47D, in the assay with SR, with 786-0, in the assay on Hs-578T, with SNB-19 and with DU-145 was > 100 µM (inactive) in each case. For the same compound, the GI50 in the assay with SK-MEL-5, with NCI/ADR-RES, in the assay with OVCAR-5, in the assay on LOX IMVI, in the assay on HL-60 and in the assay with IGROV-1 was > 100 µM (inactive) each time. Also, the GI50 with A549 and in the assay with UACC-62 was > 100 µM (inactive) in each case.
As for `COc1cc2[nH]c3c(c2cc1OC)CCN[C@@]31CC[C@@]2(CC3c4c(cc(OC)c(O)c42)CCN3C)C[C@@H]1OC` (stereo not given in full), the GI50 in the assay on SK-MEL-2 was 17.8 µM (inactive); with RXF 393 it was 21 µM (inactive); with EKVX it was 36.4 µM (inactive); with KM12, 42.6 µM (inactive); in the assay with MCF7, > 68.2 µM (inactive); in the assay on SK-OV-3 it was 73.6 µM (inactive). Besides, the GI50 in the assay on T47D is 20.5 µM (inactive); with SR, 12.5 µM (inactive); in the assay with 786-0 it was 50.7 µM (inactive); in the assay with Hs-578T it was 19.7 µM (inactive); in the assay on SNB-19, > 81.1 µM (inactive); in the assay on DU-145 it was > 81.3 µM (inactive). Besides, the GI50 is 16.5 µM (inactive) with SK-MEL-5; 48.8 µM (inactive) in the assay with NCI/ADR-RES; > 73.3 µM (inactive) in the assay with OVCAR-5; 18.8 µM (inactive) in the assay on LOX IMVI; 16.3 µM (inactive) in the assay on HL-60; 66.1 µM (inactive) in the assay with IGROV-1. Besides, the values for the GI50 with A549 and in the assay on UACC-62 were 63 µM (inactive) and 22.9 µM (inactive), respectively.
For `COc1ccc(/C=C(/C)[N+](=O)[O-])cc1`, the GI50 in the assay with SK-MEL-2 is 4.95 µM (inactive); in the assay with RXF 393, 1.69 µM (inactive); in the assay with EKVX it was 2.13 µM (inactive); in the assay on KM12 it was 1.67 µM (inactive); in the assay on MCF7, 1.22 µM (inactive); in the assay on SK-OV-3 it was 5.98 µM (inactive). The GI50 in the assay with T47D was 3.72 µM (inactive); in the assay on SR, 0.419 µM (active); in the assay with 786-0, 1.26 µM (inactive); in the assay with Hs-578T, 9.02 µM (inactive); in the assay on SNB-19, 5.86 µM (inactive); with DU-145, 2.36 µM (inactive). The GI50 in the assay on SK-MEL-5 was 2.48 µM (inactive); with NCI/ADR-RES, 3.41 µM (inactive); with OVCAR-5, 3.19 µM (inactive); in the assay on LOX IMVI it was 1.48 µM (inactive); in the assay with HL-60 it was 2.62 µM (inactive); in the assay on IGROV-1, 2.13 µM (inactive). The GI50 with A549 was 4.21 µM (inactive); in the assay with UACC-62 it was 1.68 µM (inactive).
Consider `CN(C)CCCN1CCC2(CCC(C(C)(C)C)CC2)CC1`, for which the GI50 in the assay on SK-MEL-2 is 1.75 µM (inactive); in the assay with RXF 393 it was 1.6 µM (inactive); in the assay with EKVX it was 5.33 µM (inactive); in the assay with KM12, 2.38 µM (inactive); in the assay with MCF7 it was 1.65 µM (inactive); in the assay on SK-OV-3 it was 9.29 µM (inactive). Also, the GI50 in the assay with T47D was 1.88 µM (inactive); with SR, 1.42 µM (inactive); in the assay with 786-0, 1.54 µM (inactive); in the assay on Hs-578T, 1.89 µM (inactive); in the assay on SNB-19 it was 3.27 µM (inactive); in the assay on DU-145 it was 6.71 µM (inactive). The GI50 in the assay on SK-MEL-5 was 1.61 µM (inactive); with NCI/ADR-RES, 5.08 µM (inactive); in the assay on OVCAR-5, 3.08 µM (inactive); with LOX IMVI, 1.42 µM (inactive); in the assay with HL-60 it was 0.603 µM (active); with IGROV-1 it was 4.01 µM (inactive). Besides, the figures for the GI50 with A549 and in the assay with UACC-62 were 3.27 µM (inactive) and 1.88 µM (inactive), respectively.
For `Fc1ccc(Oc2nc3ccc(C(F)(F)F)cc3nc2-c2ccccc2)cc1`, the GI50 was 60 µM (inactive) in the assay with SK-MEL-2; 67.5 µM (inactive) with RXF 393; > 100 µM (inactive) with EKVX; > 100 µM (inactive) in the assay on KM12; 28.8 µM (inactive) in the assay with MCF7; 81.5 µM (inactive) with SK-OV-3. Besides, the GI50 was 99.3 µM (inactive) with T47D; 24.3 µM (inactive) with SR; 61.7 µM (inactive) in the assay on 786-0; 28.2 µM (inactive) in the assay with Hs-578T; 87.9 µM (inactive) in the assay on SNB-19; > 100 µM (inactive) in the assay with DU-145. The GI50 in the assay on SK-MEL-5 is 68.1 µM (inactive); in the assay with NCI/ADR-RES, > 100 µM (inactive); in the assay with OVCAR-5 it was > 100 µM (inactive); in the assay on LOX IMVI, > 100 µM (inactive); in the assay with HL-60, 87.3 µM (inactive); in the assay on IGROV-1 it was > 100 µM (inactive). Further, the GI50 in the assay on A549 is 36.6 µM (inactive); with UACC-62, 39.8 µM (inactive).
Regarding `O=C(O)c1ccc(NCc2nc3cc4ccccc4cc3[nH]2)cc1`, the GI50 in the assay on SK-MEL-2 was 24.7 µM (inactive); with RXF 393, > 100 µM (inactive); with EKVX, > 100 µM (inactive); with KM12 it was > 100 µM (inactive); with MCF7 it was 2.81 µM (inactive); in the assay on SK-OV-3 it was > 100 µM (inactive). Further, the GI50 with T47D, with SR, with 786-0, in the assay on Hs-578T, in the assay on SNB-19 and in the assay with DU-145 was > 100 µM (inactive) in each case. The GI50 in the assay on SK-MEL-5 is > 21.4 µM (inactive); in the assay on NCI/ADR-RES, > 100 µM (inactive); in the assay with OVCAR-5 it was > 100 µM (inactive); in the assay with LOX IMVI, > 100 µM (inactive); in the assay with HL-60, > 20.5 µM (inactive); with IGROV-1, > 100 µM (inactive). The GI50 with A549 and in the assay on UACC-62 was > 100 µM (inactive) in each case.
For `O=C(O)/C=C\C(=O)Nc1ccc2c(c1)C(=O)c1cc(F)ccc1-2`, the GI50 in the assay on SK-MEL-2, in the assay on RXF 393, with EKVX, in the assay on KM12, with MCF7 and in the assay with SK-OV-3 was > 100 µM (inactive) each time. In addition, the GI50 is > 100 µM (inactive) in the assay with T47D; > 100 µM (inactive) in the assay with SR; > 100 µM (inactive) with 786-0; 54.3 µM (inactive) in the assay with Hs-578T; > 100 µM (inactive) in the assay on SNB-19; > 100 µM (inactive) with DU-145. Besides, the GI50 in the assay on SK-MEL-5, with NCI/ADR-RES, with OVCAR-5, in the assay on LOX IMVI, in the assay on HL-60 and in the assay on IGROV-1 was > 100 µM (inactive) throughout. The GI50 with A549 and in the assay with UACC-62 was > 100 µM (inactive) each time.

(Values after ChEMBL document CHEMBL1201862, “PubChem BioAssay data set” (2004).)
